# Measured values taken from patent publication US8658638B2, “Mineralocorticoid receptor antagonist and methods of use” (priority 2009, dated 2014).
# Columns and labels:
# [1] = target: T1, human AR (androgen receptor) (Homo sapiens, UniProt P10275); test: Steroid nuclear hormone receptor binding assay, AR; conditions: [3H]-methyltrienolone, HEK293 lysate overexpressing human AR
# T1 construct: expressed in transfected cells; host or cells: HEK293 (293-AR lysate)
# T1 sequence (P10275 1-920): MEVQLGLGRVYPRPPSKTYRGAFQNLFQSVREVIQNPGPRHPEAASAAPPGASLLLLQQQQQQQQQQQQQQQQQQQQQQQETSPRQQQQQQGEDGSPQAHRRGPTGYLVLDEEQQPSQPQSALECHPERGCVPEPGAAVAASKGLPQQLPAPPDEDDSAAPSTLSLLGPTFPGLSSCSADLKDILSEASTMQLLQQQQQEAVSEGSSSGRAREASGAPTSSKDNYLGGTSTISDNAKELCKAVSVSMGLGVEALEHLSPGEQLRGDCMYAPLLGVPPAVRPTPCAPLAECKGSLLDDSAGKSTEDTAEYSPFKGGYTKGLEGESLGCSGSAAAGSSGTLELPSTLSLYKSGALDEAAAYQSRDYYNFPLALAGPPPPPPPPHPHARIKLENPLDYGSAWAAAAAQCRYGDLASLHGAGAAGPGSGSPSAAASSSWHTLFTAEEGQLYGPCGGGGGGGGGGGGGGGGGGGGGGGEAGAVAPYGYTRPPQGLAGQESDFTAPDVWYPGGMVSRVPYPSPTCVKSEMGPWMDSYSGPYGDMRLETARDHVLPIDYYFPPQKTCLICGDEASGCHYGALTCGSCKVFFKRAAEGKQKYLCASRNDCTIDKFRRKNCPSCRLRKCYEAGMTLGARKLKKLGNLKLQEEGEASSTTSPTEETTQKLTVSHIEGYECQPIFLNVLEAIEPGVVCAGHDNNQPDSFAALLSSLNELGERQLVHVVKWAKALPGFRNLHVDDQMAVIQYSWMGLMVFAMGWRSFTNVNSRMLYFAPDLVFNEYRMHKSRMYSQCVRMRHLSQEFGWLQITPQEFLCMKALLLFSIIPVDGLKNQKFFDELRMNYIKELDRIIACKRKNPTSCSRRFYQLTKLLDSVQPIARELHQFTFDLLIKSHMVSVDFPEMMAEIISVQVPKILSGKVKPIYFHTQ
# Experimental: Cell lysates from human embryonic kidney HEK293 cells overexpressing human MR (mineralocorticoid receptor), GR (glucocorticoid receptor), AR (androgen receptor), or PR (progesterone receptor) are used for receptor-ligand competition binding assays to determine Ki values.
# Briefly, steroid receptor competition binding assays are run in a buffer containing 20 mM HEPES buffer (pH=7.6), 0.2 mM EDTA, 75 mM NaCl, 1.5 mM MgCl2, 20% glycerol, 20 mM sodium molybdate, 0.2 mM DTT (dithiothreitol), 20 μg/mL aprotinin and 20 μg/mL leupeptin (assay buffer). Typically, steroid receptor binding assays include radio-labeled ligands, such as 0.25 nM [^3H]-aldosterone for MR binding, 0.7 nM [^3H]-dexamethasone for GR binding, 0.36 nM [^3H]-methyltrienolone for AR binding, and 0.29 nM [^3H]-methyltrienolone for PR binding, and either 20 μg 293-MR lysate, 20 μg 293-GR lysate, 22 μg 293-AR lysate, or 40 μg 293-PR lysate per well. Assays are typically run in 96-well format. Competing test compounds are added at various concentrations ranging from about 0.01 nM to 10 μM. Non-specific binding is determined in the presence of 500 nM aldosterone for MR binding, 500 nM dexamethasone for GR binding, or 500 nM methyltrienolone for AR and PR binding. […] After an incubation of 2 hours, plates are read in a Wallac Microbeta counter. […]
# human MR = target: T2, human MR (Homo sapiens, UniProt P08235); test: hMR competitive antagonist assay (Schild analysis); type: cell-based; conditions: Schild analysis versus aldosterone, HEK293 transfected with human MR
# T2 construct: expressed in transfected cells; host or cells: HEK293
# T2 sequence (P08235 1-984): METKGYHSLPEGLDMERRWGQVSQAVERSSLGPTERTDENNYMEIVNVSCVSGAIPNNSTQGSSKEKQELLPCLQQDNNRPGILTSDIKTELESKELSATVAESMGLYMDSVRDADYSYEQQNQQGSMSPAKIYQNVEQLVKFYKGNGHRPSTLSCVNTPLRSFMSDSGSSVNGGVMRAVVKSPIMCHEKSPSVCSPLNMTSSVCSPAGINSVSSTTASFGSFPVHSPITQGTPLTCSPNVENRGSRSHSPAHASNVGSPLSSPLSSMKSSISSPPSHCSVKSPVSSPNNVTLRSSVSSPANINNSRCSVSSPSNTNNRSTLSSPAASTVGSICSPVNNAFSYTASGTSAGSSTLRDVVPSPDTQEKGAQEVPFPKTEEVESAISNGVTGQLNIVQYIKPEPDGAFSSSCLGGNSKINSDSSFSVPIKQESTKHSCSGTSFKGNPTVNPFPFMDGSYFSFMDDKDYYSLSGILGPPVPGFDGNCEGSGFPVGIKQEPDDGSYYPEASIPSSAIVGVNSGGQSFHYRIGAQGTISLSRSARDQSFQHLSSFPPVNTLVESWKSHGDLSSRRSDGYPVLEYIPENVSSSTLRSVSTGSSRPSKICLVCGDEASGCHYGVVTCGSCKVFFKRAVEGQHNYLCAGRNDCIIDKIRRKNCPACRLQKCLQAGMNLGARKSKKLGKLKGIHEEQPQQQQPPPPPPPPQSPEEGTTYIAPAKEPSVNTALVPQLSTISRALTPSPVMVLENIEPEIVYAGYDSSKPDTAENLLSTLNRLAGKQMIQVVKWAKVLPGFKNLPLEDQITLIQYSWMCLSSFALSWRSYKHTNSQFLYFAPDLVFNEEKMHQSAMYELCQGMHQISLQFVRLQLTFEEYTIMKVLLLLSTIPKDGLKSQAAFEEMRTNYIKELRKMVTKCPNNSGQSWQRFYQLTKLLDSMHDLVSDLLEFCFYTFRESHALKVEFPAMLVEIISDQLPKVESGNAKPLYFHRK
# From the text: Human embryonic kidney HEK293 cells are transfected with human MR using the same transfection reagents, plasmids, promoters, reporter constructs, buffers, and procedures as described above for the Nuclear Hormone Receptor Panel Screen.
smiles,measurement,setting,value
"O=c1[nH]c2cc(/C=C3\c4ccccc4COc4cc(F)ccc43)ccc2n1[C@@H]1C[C@@H]2COCCN2C1 [Compound (I), 5-((E)-(3-fluorodibenzo[b,e]oxepin-11(6H)-ylidene)methyl)-1-((7R,8aR)-hexahydro-1H-pyrrolo[2,1-c][1,4]oxazin-7-yl)-1H-benzo[d]imidazol-2(3H)-one]",Ki,[1],~1170 nM
same,Kb,human MR,~5.1 nM
